Numbers after ± are expanded uncertainties.
Settings: Liquid, Vibrating tube method

In the case of `CCCCn1cc[n+](C)c1C.O=S(=O)([N-]S(=O)(=O)C(F)(F)F)C(F)(F)F`, the mass density (278.15 K, 100 kPa) is reported as 1439.8 ± 0.7 kg/m3, the mass density (278.15 K, 1000 kPa) is reported as 1440 ± 0.7 kg/m3 and the mass density (278.15 K, 10000 kPa) is reported as 1445.9 ± 0.8 kg/m3. For the same compound, the mass density (278.15 K, 20000 kPa) was 1452.2 ± 0.9 kg/m3, the mass density (278.15 K, 40000 kPa) was 1464 ± 1.1 kg/m3 and the mass density (278.15 K, 60000 kPa) was 1475 ± 1.4 kg/m3. The mass density (278.15 K, 80000 kPa) was 1485.2 ± 1.7 kg/m3, the mass density (278.15 K, 100000 kPa) was 1494.7 ± 2.1 kg/m3 and the mass density (278.15 K, 120000 kPa) was 1503.9 ± 2.6 kg/m3. It also gave a mass density (298.15 K, 100 kPa) of 1420.9 ± 0.7 kg/m3, a mass density (298.15 K, 1000 kPa) of 1421.2 ± 0.7 kg/m3 and a mass density (298.15 K, 10000 kPa) of 1427.5 ± 0.8 kg/m3. The mass density (298.15 K, 20000 kPa) was 1434.1 ± 0.9 kg/m3, the mass density (298.15 K, 40000 kPa) was 1446.5 ± 1.1 kg/m3 and the mass density (298.15 K, 60000 kPa) was 1458 ± 1.4 kg/m3. For the same compound, the mass density (298.15 K, 80000 kPa) was 1468.8 ± 1.7 kg/m3, the mass density (298.15 K, 100000 kPa) was 1479 ± 2.1 kg/m3 and the mass density (298.15 K, 120000 kPa) was 1488.7 ± 2.5 kg/m3. The mass density (313.15 K, 100 kPa) was 1407.1 ± 0.7 kg/m3, the mass density (313.15 K, 1000 kPa) was 1407.5 ± 0.7 kg/m3 and the mass density (313.15 K, 10000 kPa) was 1414 ± 0.8 kg/m3. It also gave a mass density (313.15 K, 20000 kPa) of 1420.9 ± 0.9 kg/m3, a mass density (313.15 K, 40000 kPa) of 1433.9 ± 1.1 kg/m3 and a mass density (313.15 K, 60000 kPa) of 1445.8 ± 1.3 kg/m3. The mass density (313.15 K, 80000 kPa) was 1457 ± 1.6 kg/m3, the mass density (313.15 K, 100000 kPa) was 1467.3 ± 2 kg/m3 and the mass density (313.15 K, 120000 kPa) was 1477.2 ± 2.4 kg/m3. For the same compound, the mass density (333.15 K, 100 kPa) was 1388.5 ± 0.7 kg/m3, the mass density (333.15 K, 1000 kPa) was 1389 ± 0.7 kg/m3 and the mass density (333.15 K, 10000 kPa) was 1396 ± 0.8 kg/m3. It also gave a mass density (333.15 K, 20000 kPa) of 1403.4 ± 0.8 kg/m3, a mass density (333.15 K, 40000 kPa) of 1417.1 ± 1 kg/m3 and a mass density (333.15 K, 60000 kPa) of 1429.7 ± 1.3 kg/m3. For the same compound, the mass density (333.15 K, 80000 kPa) was 1441.4 ± 1.6 kg/m3, the mass density (333.15 K, 100000 kPa) was 1452.2 ± 2 kg/m3 and the mass density (333.15 K, 120000 kPa) was 1462.6 ± 2.4 kg/m3. The mass density (348.15 K, 100 kPa) was 1374.7 ± 0.7 kg/m3, the mass density (348.15 K, 1000 kPa) was 1375.3 ± 0.7 kg/m3 and the mass density (348.15 K, 10000 kPa) was 1382.7 ± 0.8 kg/m3. It also gave a mass density (348.15 K, 20000 kPa) of 1390.4 ± 0.8 kg/m3, a mass density (348.15 K, 40000 kPa) of 1404.7 ± 1 kg/m3 and a mass density (348.15 K, 60000 kPa) of 1417.8 ± 1.3 kg/m3. For the same compound, the mass density (348.15 K, 80000 kPa) was 1429.9 ± 1.6 kg/m3, the mass density (348.15 K, 100000 kPa) was 1441.1 ± 1.9 kg/m3 and the mass density (348.15 K, 120000 kPa) was 1451.7 ± 2.3 kg/m3. The mass density (373.15 K, 100 kPa) was 1351.1 ± 5 kg/m3, the mass density (373.15 K, 1000 kPa) was 1352.3 ± 3 kg/m3 and the mass density (373.15 K, 10000 kPa) was 1360.4 ± 3 kg/m3. It also gave a mass density (373.15 K, 20000 kPa) of 1368.7 ± 3 kg/m3, a mass density (373.15 K, 40000 kPa) of 1384 ± 3.1 kg/m3 and a mass density (373.15 K, 60000 kPa) of 1397.9 ± 3.2 kg/m3. It also gave a mass density (373.15 K, 80000 kPa) of 1410.6 ± 3.3 kg/m3, a mass density (373.15 K, 100000 kPa) of 1422.5 ± 3.4 kg/m3 and a mass density (373.15 K, 120000 kPa) of 1433.6 ± 3.6 kg/m3. The mass density (398.15 K, 100 kPa) was 1328.4 ± 5 kg/m3, the mass density (398.15 K, 1000 kPa) was 1329.7 ± 3 kg/m3 and the mass density (398.15 K, 10000 kPa) was 1338.4 ± 3 kg/m3. It also gave a mass density (398.15 K, 20000 kPa) of 1347.4 ± 3 kg/m3, a mass density (398.15 K, 40000 kPa) of 1363.8 ± 3.1 kg/m3 and a mass density (398.15 K, 60000 kPa) of 1378.5 ± 3.2 kg/m3. It also gave a mass density (398.15 K, 80000 kPa) of 1392.1 ± 3.3 kg/m3, a mass density (398.15 K, 100000 kPa) of 1404.6 ± 3.4 kg/m3 and a mass density (398.15 K, 120000 kPa) of 1416 ± 3.6 kg/m3.
